Data as given in ChEMBL document CHEMBL1201862, “PubChem BioAssay data set” (2004).
Active and inactive are the calls of the source.

Assays:
[1] = target: FAD-linked sulfhydryl oxidase ALR (Homo sapiens, UniProt P55789); assay: inhibitors of human ALR sulfhydryl oxidase, dose response, biochemical, H2O2 detection, luminescence, cherry-pick (AID 493248)
Vero = assay: cells; assay type: functional; details: Chlorocebus sabaeus
[2] = growth suppression of beta-catenin-knockout colon cells, dose response, cell-based, HCT116, human colon tumor (AID 1045); assay type: functional;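 note: HCT116 colon tumor cells with beta catenin knocked out; cells exposed to compound for 60 hours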
[3] = growth suppression of PTEN-null colon cells, dose response, cell-based, HCT116 PTEN knockout (AID 1047); assay type: functional;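 note: HCT116 colon tumor cells with PTEN knocked out; cells exposed to compound for 60 hours before readout; potency for loss of cell viability measured by luminescence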
[4] = test system: Streptococcus sp. 'group A'; assay: growth inhibition of control SK(-) GAS strain, dose response, counter-screen for streptokinase expression inhibitor project, luminescence, kanamycin, BacTiterGlo, confirmation (AID 1900); assay type: functional, organism-based
[5] = target: T1, Ubiquitin-conjugating enzyme E2 N (Homo sapiens, UniProt P61088); assay type: functional;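 note: Dose-response confirmation in a TR-FRET assay detecting UBC13-driven polyubiquitin chain formation, inhibition measured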
T1 sequence (P61088 whole entry): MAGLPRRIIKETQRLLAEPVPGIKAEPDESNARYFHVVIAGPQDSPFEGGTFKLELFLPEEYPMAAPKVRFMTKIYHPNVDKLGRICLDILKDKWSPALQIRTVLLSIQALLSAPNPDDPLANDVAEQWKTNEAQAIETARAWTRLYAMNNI

Streptokinase A = target: T2, Streptokinase A (Streptococcus pyogenes serotype M1, UniProt P10520); assay: S. pyogenes streptokinase expression inhibitors, potency, dose response, plasminogen activation absorbance, OD405 (AID 1914); assay type: functional, Streptococcus pyogenes M1 GAS;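 note: secreted streptokinase activity via plasminogen activation per viability signal from cell pellet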
T2 sequence (P10520 whole entry): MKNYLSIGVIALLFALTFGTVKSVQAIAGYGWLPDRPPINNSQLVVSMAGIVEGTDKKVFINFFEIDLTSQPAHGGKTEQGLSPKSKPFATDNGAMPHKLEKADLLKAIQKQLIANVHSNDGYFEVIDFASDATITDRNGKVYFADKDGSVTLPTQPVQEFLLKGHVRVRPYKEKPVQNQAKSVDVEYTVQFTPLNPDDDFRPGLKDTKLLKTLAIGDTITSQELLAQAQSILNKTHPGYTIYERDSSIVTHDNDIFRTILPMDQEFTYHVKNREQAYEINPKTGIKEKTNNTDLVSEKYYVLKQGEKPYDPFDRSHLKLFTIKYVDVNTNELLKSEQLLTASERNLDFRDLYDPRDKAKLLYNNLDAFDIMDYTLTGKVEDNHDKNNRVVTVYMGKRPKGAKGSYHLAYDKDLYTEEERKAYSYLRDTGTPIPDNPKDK

[6] = Luminescence Cell-Based Dose Retest to Confirm Inhibitors of Cancer Stem Cells. [Related pubchem assays (depositor defined):AID2717, AID2721]; assay type: functional; details: Homo sapiens
Streptococcus = assay: Group A Streptococcus viability loss, dose response, counter-screen for streptokinase expression inhibitor project, luminescence, BacTiterGlo (AID 1915); assay type: functional, organism-based;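 note: potency for reduction of bacterial viability or growth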
[7] = C. albicans growth with fluconazole, confirmation, fluorescence, retest (AID 2467); assay type: functional, cell-based
[8] = NIH-3T3 fibroblast cytotoxicity, dose response, cytotoxicity control, cell-based, fluorescence, Alamar Blue, secondary assay (AID 2327); assay type: functional;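 note: NIH-3T3 mouse fibroblasts cultured with fluconazole at 8 µg/mL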
[9] = target: T3, Rac GTPase-activating protein 1 (Homo sapiens, UniProt Q9H0H5); assay: MgcRacGAP GTPase-activating activity inhibitors, confirmation, biochemical, ADP Hunter fluorescence, primary and confirmatory (AID 624330); assay type: functional
T3 sequence (Q9H0H5 whole entry): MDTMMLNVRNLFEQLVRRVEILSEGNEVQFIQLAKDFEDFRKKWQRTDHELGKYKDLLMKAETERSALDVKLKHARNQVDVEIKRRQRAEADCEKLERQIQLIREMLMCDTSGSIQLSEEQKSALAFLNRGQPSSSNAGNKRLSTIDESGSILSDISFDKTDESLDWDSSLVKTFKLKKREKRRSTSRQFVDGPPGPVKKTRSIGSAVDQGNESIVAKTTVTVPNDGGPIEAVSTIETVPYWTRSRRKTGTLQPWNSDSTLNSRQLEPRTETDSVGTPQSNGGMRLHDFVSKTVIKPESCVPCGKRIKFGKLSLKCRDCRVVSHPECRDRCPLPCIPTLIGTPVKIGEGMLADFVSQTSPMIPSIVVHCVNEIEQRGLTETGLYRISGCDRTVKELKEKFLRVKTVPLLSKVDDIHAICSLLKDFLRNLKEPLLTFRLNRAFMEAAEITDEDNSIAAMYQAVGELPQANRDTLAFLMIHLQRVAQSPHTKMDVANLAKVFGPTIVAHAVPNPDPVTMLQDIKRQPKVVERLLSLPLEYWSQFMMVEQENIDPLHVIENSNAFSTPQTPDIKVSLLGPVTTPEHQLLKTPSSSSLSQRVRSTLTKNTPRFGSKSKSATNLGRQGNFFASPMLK

[10] = target: T4, Corticotropin-releasing factor receptor 2/Corticotropin-releasing factor-binding protein (Homo sapiens, UniProt P24387+Q13324); assay: Dose Response confirmation of uHTS hits for small molecule antagonists of the CRF-binding protein and CRF-R2 receptor complex.; assay type: functional; details: read-out: IC50_Mean
T4 sequence (Q13324 whole entry): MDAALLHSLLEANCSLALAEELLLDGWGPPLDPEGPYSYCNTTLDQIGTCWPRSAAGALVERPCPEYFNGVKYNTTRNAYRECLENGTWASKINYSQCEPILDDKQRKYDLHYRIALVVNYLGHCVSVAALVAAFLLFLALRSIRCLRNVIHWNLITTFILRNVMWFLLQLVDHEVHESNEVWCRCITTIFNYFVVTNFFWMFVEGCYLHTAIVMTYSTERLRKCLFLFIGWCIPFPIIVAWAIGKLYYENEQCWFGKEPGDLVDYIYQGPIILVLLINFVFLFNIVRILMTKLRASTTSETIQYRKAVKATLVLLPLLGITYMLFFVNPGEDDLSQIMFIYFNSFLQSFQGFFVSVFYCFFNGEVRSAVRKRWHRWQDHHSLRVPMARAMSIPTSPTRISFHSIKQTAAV
T4 sequence (P24387 whole entry): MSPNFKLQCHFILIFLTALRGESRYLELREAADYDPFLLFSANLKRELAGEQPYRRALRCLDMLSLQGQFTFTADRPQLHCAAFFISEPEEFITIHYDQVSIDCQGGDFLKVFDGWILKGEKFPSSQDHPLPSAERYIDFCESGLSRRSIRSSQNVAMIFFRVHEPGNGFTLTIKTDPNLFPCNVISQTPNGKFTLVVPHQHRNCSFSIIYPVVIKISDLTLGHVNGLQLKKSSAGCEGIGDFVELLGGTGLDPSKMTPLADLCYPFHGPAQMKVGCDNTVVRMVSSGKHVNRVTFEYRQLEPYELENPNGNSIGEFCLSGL

[11] = target: T4, Corticotropin-releasing factor receptor 2/Corticotropin-releasing factor-binding protein; assay: activators of CRF receptor 2 with binding protein – uHTS hits, confirmation (AID 602473); assay type: functional; details: read-out: EC50_Mean
[12] = target: T5, Heat shock factor protein 1 (Mus musculus, UniProt P38532); assay: HSF1 potentiators in luciferase reporter cells, confirmation, cell-based, NIH3T3, luminescence, dose retest (AID 435004); assay type: functional;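 note: stress induced by proteasome inhibitor MG132 added 30 min after compound; luciferase reporter driven by HSF1 response element in NIH3T3 cells; actives raise luminescence as potentiators of the MG132 stress response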
T5 sequence (P38532 whole entry): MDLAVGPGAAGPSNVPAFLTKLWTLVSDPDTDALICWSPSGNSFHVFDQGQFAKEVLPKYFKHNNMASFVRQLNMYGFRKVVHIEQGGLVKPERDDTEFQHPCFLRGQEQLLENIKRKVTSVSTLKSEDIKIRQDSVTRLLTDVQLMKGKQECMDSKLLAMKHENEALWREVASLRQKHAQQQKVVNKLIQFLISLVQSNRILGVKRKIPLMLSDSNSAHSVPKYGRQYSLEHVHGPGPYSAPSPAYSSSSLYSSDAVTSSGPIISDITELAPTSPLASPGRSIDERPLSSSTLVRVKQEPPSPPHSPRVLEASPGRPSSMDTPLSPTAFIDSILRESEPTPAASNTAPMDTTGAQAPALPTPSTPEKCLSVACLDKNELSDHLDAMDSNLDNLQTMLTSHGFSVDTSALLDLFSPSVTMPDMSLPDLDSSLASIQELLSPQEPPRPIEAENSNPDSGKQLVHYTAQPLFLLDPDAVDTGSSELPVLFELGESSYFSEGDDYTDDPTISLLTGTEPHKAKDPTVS

[13] = target: T6, High affinity choline transporter 1 (Homo sapiens, UniProt Q9GZV3); assay: CHT inhibitors, dose response, cell-based, 5-point CRC, membrane potential dye (AID 504840); assay type: functional
T6 sequence (Q9GZV3 whole entry): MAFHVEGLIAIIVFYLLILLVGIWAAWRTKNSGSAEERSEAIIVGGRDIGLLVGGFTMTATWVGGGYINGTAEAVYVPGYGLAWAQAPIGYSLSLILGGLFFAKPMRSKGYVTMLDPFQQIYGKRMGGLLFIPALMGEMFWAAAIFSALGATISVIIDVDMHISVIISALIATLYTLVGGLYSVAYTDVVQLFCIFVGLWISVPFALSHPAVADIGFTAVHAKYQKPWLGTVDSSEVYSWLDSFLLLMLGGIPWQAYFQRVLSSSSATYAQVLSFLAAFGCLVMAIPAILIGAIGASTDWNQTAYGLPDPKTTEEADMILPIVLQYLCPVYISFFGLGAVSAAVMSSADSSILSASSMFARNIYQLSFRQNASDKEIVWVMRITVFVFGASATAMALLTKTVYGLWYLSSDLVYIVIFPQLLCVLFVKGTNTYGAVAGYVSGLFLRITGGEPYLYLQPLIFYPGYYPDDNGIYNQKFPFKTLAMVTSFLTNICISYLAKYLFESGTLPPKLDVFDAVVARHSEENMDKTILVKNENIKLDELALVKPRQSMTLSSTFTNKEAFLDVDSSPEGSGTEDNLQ

[14] = cytotoxicity toward NIH3T3 fibroblasts, dose response, counter-screen, cell-based, ATP luminescence, mouse fibroblasts (AID 2010); assay type: functional;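 note: cells exposed to compound for about 90 hours before reading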
[15] = inhibitors of intracellular T. cruzi replication, confirmation, NIH3T3 host cells, beta-gal luminescence (AID 2044); assay type: functional, cell-based;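 note: intracellular parasites grown in NIH/3T3 mouse fibroblasts as host cells; luminescent beta-galactosidase reporter signal from transgenic T. cruzi replicating inside host cells; inhibitors lower the luminescence signal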
Cytochrome P450 2D6 = Cytochrome P450 2D6 (Homo sapiens, UniProt P10635);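 note: CYP2D6 member of a cytochrome P450 panel assay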
Sequence of Cytochrome P450 2D6 (P10635 whole entry): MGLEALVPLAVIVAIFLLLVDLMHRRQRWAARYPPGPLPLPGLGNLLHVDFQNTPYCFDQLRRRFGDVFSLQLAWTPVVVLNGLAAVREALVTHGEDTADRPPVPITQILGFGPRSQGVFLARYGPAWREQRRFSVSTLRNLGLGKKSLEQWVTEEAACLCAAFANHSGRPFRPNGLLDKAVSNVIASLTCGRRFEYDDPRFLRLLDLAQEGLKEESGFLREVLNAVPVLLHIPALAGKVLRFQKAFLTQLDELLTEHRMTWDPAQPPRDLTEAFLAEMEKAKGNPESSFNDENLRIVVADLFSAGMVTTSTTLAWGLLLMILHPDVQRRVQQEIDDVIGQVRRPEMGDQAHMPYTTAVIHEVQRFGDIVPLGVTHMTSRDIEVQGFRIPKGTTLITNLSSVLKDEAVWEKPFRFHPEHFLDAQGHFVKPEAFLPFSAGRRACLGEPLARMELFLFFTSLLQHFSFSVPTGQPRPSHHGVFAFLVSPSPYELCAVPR

Sequence of FAD-linked sulfhydryl oxidase ALR (P55789 whole entry): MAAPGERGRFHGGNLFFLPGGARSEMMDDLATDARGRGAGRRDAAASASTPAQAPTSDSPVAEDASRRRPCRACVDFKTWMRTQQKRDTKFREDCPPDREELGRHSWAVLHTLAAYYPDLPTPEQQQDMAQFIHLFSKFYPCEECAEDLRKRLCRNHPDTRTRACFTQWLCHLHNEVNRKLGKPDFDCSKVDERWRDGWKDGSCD

Nc1ccc(-c2nc3ccccc3[nH]2)cc1
AC50 [1]: 1.3 µM (active)

CC1CCN(c2nc3ccc(C(=O)NCCCN4CCCCC4C)cc3s2)CC1 (stereo not drawn)
CC50 (Vero): > 25 µM (active)

CN(C)CCNC=C(C(=O)Nc1ccc(Cl)cc1Cl)C(=O)Nc1ccc(Cl)cc1Cl
EC50 [2]: 26.4 µM (active)
EC50 [3]: 17.2 µM (active)
EC50 [4]: 2.71 µM (active)
IC50 [5]: > 20 µM (inactive)
EC50 (Streptokinase A): > 150 µM (not active)
AC50 [6]: 6.84 µM (active)
EC50 (Streptococcus): 6.32 µM (active)
CC50 (Vero): > 25 µM (active)

O=C(NCC1CCCO1)c1cc2n(n1)C(C(F)(F)F)CC(c1ccc(Br)cc1)N2 (stereo not drawn)
EC50 [7]: > 38 µM (not active)
EC50 [8]: > 160 µM (inactive)

Cc1cccc(N2CCN(C(=O)C3CCN(S(=O)(=O)c4c(C)noc4C)CC3)CC2C)c1 (stereo not drawn)
AC50 [1]: 10.6 µM (active)

COc1ccc(CSc2[nH]c(C)nc2[N+](=O)[O-])cc1[N+](=O)[O-]
AC50 [1]: 0.02 µM (active)

Nc1ccc(N2CCN(c3ccc(F)cc3)CC2)cc1
AC50 [1]: 0.821 µM (active)
EC50 [8]: 40.1 µM (active)
IC50 [9]: 18.2 µM (active)

Cc1ccc(CN2CCSc3ccc(C(=O)N4CCN(c5ncccn5)CC4)cc32)cc1
IC50 [10]: > 47.1 µM (inactive)
EC50 [11]: > 53 µM (inactive)

O=C(CSc1nnc(-c2ccc(F)cc2)c2ccccc12)Nc1ccccc1
EC50 [12]: 104 µM (active)

CCOC(=O)c1sc(NC(=O)CCN2CCC(C)CC2)c(C(=O)OCC)c1C
EC50 [12]: > 260 µM (inactive)

CC(C)CCNCC(=O)NC(c1ccccc1)c1ccccc1
EC50 [7]: > 38 µM (not active)
EC50 [8]: > 160 µM (inactive)

CCOc1cc(N2CCOCC2)c(OCC)cc1NC(=O)c1nc2nc(C)cc(C)n2n1
EC50 [7]: > 38 µM (not active)
EC50 [8]: > 160 µM (inactive)

C=C(C)COc1ccc(-c2[nH]nc(C)c2-c2ccccc2)c(O)c1
EC50 [7]: 2.67 µM (active)
EC50 [4]: 9.45 µM (active)
EC50 [8]: 93.6 µM (active)
EC50 (Streptococcus): 16.4 µM (active)

Cc1ccc(C2(C)CC(C)(C)N(C(=O)CSc3nnc(C)s3)c3ccccc32)cc1 (stereo not drawn)
IC50 [10]: > 47.1 µM (inactive)
EC50 [11]: > 53 µM (inactive)

COc1cc(/C=C/C(=O)N2C(=O)c3cccc(N)c3C2=O)cc(OC)c1OC
EC50 [12]: 2.98 µM (active)
CC50 (Vero): 17.8 µM (active)

CC(=O)N[C@H]1C[C@@H]1c1ccccc1
IC50 [10]: > 47.1 µM (inactive)
EC50 [11]: > 53 µM (inactive)

Cc1cccc(N2CCN(C(=O)C3CCCN(S(=O)(=O)c4c[nH]cn4)C3)CC2C)c1 (stereo not drawn)
AC50 [1]: 3.55 µM (active)

O=C(Nc1nc2ccc(S(=O)(=O)N3CCCCC3)cc2s1)c1ccncc1
EC50 [7]: 1.95 µM (active)
EC50 [8]: 130 µM (active)

CCn1c(=O)c(=O)[nH]c2cc(C(=O)NC(C)c3ccc(S(N)(=O)=O)cc3)ccc21 (stereo not drawn)
AC50 [1]: 0.407 µM (active)

Cc1ccc(C(=O)C[n+]2cccc3ccccc32)cc1
IC50 [13]: 13.8 µM (active)
EC50 [14]: > 60 µM (not active)
EC50 [15]: 32.4 µM (active)

COc1ccccc1-c1c(NC(=O)C(C)C)n(C)c2ccccc2c1=O
IC50 [10]: > 47.1 µM (inactive)
EC50 [11]: > 53 µM (inactive)

Nc1ccc(Sc2cnn(-c3ccccc3)c(=O)c2Cl)cc1
AC50 (Cytochrome P450 2D6): 12.6 µM (inconclusive)
EC50 [12]: > 260 µM (inactive)

CC(C)c1ccc(NC2CCCN(C(=O)c3cnsn3)C2)cc1 (stereo not drawn)
AC50 [1]: 4.8 µM (active)

CN(c1ccccc1)c1nc(N)c([N+](=O)[O-])c(N2CCCCCC2)n1
EC50 [12]: 27.7 µM (active)

O=C(C[C@H]1C/C=C\C[C@@H](Cc2ccc(F)cc2)C(=O)O[C@H](c2ccccc2)CNC1=O)NCCO
IC50 [10]: > 47.1 µM (inactive)
EC50 [11]: > 53 µM (inactive)

Cc1cccc(C(=O)Oc2ccc(/C=N/NC(=O)c3ccc(O)cc3)cc2)c1
IC50 [10]: > 47.1 µM (inactive)
EC50 [11]: > 53 µM (inactive)

O=C(N/N=C/c1ccncc1)c1cccc(N/N=C/c2ccncc2)c1
AC50 [1]: 6.02 µM (active)
